Assay results taken from patent US7109193B2, “Tricyclic diazepines tocolytic oxytocin receptor antagonists” (Wyeth, priority 2001, dated 2006).

Target: T1, human vasopressin V2 receptor subtype (Homo sapiens, UniProt P30518)
T1 construct: host or cells: CHO cells (pZeoSV vector)
Experiment: Vasopressin binding in Chinese Hamster Ovary cell membranes expressing human vasopressin V2 subtype receptors
Settings: 100 nM, CHO cell membranes, [3H]arginine vasopressin, values without parentheses
Procedure, shortened: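 Radioligand displacement on membranes from CHO cells stably expressing human V2 receptor, 25 to 50 μg protein/well, in 50 mM Tris-HCl pH 7.4 with MgCl2, BSA and protease inhibitors. [^3H]arginine vasopressin (8 nM working solution) incubated 60 min at room temperature; bound label measured by filtration and scintillation counting.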

T1 sequence (P30518 whole entry): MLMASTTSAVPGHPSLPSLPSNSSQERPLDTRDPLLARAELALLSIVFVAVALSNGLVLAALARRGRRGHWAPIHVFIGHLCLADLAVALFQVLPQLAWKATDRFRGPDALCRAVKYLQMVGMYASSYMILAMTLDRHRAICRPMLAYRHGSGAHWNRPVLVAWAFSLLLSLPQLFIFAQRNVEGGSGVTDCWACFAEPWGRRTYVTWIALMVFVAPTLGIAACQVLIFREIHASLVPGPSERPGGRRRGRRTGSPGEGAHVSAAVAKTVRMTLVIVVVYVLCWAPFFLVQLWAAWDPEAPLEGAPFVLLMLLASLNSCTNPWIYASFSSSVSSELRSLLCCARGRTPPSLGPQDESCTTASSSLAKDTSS

inhibition at 0.1 µM	V2 % inhibition @ 100 nM (0.1 µM)	Compound
12%	–	Cc1cc(C(=O)N2Cc3ccc(C(=O)N[C@@H](Cc4c[nH]cn4)C(N)=O)n3Cc3ccccc32)ccc1-c1ccccc1C(F)(F)F [Example 284, N-[(1S)-2-Amino-1-(1H-imidazol-4-ylmethyl)-2-oxoethyl]-10-{[2-methyl-2′-(trifluoromethyl)[1,1′-biphenyl]-4-yl]carbonyl}-10,11-dihydro-5H-pyrrolo[2,1-c][1,4]benzodiazepine-3-carboxamide]
30%	–	COc1cc(C(=O)N2Cc3ccc(C(=O)N4CCN(C)CC4)n3Cc3ccccc32)ccc1-c1cccc2ccccc12 [Example 55, {10-[3-Methoxy-4-(1-naphthyl)benzoyl]-10,11-dihydro-5H-pyrrolo[2,1-c][1,4]benzodiazepin-3-yl}(4-methyl-1-piperazinyl)methanone]
–	16%	Cc1cc(C(=O)N2Cc3ccc(C(=O)N4CCN(CCCN(C)C)CC4)n3Cc3ccccc32)ccc1-c1ccccc1C(F)(F)F [Example 257, {10-[(2-Methyl-2′-trifluoromethyl-[1,1′-biphenyl]-4-yl)carbonyl]-10,11-dihydro-5H-pyrrolo[2,1-c][1,4]benzodiazepin-3-yl}{4-[3-(dimethylamino)propyl]-1-piperazinyl}-methanone]
19%	–	COc1cc(-c2ccccc2C)c(Cl)cc1C(=O)N1Cc2ccc(C(=O)N[C@@H](CCCCNC(=O)OC(C)(C)C)C(N)=O)n2Cc2ccccc21 [Example 304, tert-Butyl (5S)-6-amino-5-[({10-[(6-chloro-3-methoxy-2′-methyl[1,1′-biphenyl]-4-yl)carbonyl]-10,11-dihydro-5H-pyrrolo[2,1-c][1,4]benzodiazepin-3-yl}carbonyl)amino]-6-oxohexylcarbamate]
21%	–	Cc1ccccc1-c1ccc(C(=O)N2Cc3ccc(C(=O)N4CCN(CCCN(C)C)CC4)n3Cc3ccccc32)cc1C [Example 247, {4-[3-(Dimethylamino)propyl]-1-piperazinyl}{10-[(2,2′-dimethyl[1,1′-biphenyl]-4-yl)carbonyl]-10,11-dihydro-5H-pyrrolo[2,1-c][1,4]benzodiazepin-3-yl}methanone]
21%	–	Cc1ccccc1-c1ccc(C(=O)N2Cc3ccc(C(=O)NCCCN(C)C)n3Cc3ccccc32)cc1C [Example 73, N-[3-(Dimethylamino)propyl]-10-[(2,2′-dimethyl[1,1′-biphenyl]-4-yl)carbonyl]-10,11-dihydro-5H-pyrrolo[2,1-c][1,4]benzodiazepine-3-carboxamide]
15%	–	Cc1ccccc1-c1ccc(C(=O)N2Cc3ccc(C(=O)N4CCN(C)CC4)n3Cc3ccccc32)cc1C [Example 50, {10-[(2,2′-Dimethyl[1,1′-biphenyl]-4-yl)carbonyl]-10,11-dihydro-5H-pyrrolo[2,1-c][1,4]benzodiazepin-3-yl}(4-methyl-1-piperazinyl)methanone]
5%	–	COc1cc(C(=O)N2Cc3ccc(C(=O)n4ccnc4)n3Cc3ccccc32)ccc1-c1cccc2ccccc12 [Example 291, 1H-Imidazol-1-yl-{10-[3-methoxy-4-(1-naphthyl)benzoyl]-10,11-dihydro-5H-pyrrolo[2,1-c][1,4]benzodiazepin-3-yl}methanone]
9%	–	Cc1ccccc1-c1ccc(C(=O)N2Cc3ccc(C(=O)N4CCCN(C)CC4)n3Cc3ccccc32)cc1C [Example 63, {10-[(2,2′-Dimethyl[1,1′-biphenyl]-4-yl)carbonyl]-10,11-dihydro-5H-pyrrolo[2,1-c][1,4]benzodiazepin-3-yl}(4-methyl-1,4-diazepan-1-yl)methanone]
-6%	–	COc1cc(C(=O)N2Cc3ccc(C(=O)n4ccnc4)n3Cc3ccccc32)ccc1-c1ccccc1C [Example 290, 1H-Imidazol-1-yl-{10-[(2-methoxy-2′-methyl[1,1′-biphenyl]-4-yl)carbonyl]-10,11-dihydro-5H-pyrrolo[2,1-c][1,4]benzodiazepin-3-yl}methanone]

The next lines start with the compound.

Compound	inhibition at 0.1 µM	V2 % inhibition @ 100 nM (0.1 µM)
COc1cc(-c2ccccc2C)c(Cl)cc1C(=O)N1Cc2ccc(C(=O)NCCCN(C)C)n2Cc2ccccc21 [Example 78, 10-[(6-Chloro-3-methoxy-2′-methyl[1,1′-biphenyl]-4-yl)carbonyl]-N-[3-(dimethylamino)propyl]-10,11-dihydro-5H-pyrrolo[2,1-c][1,4]benzodiazepine-3-carboxamide]	14%	–
COc1ccccc1-c1ccc(C(=O)N2Cc3ccc(C(=O)N[C@H]4CN5CCC4CC5)n3Cc3ccccc32)cc1 [Example 296, N-[(3R)-1-Azabicyclo[2.2.2]oct-3-yl]-10-[(2′-methoxy[1,1′-biphenyl]-4-yl)carbonyl]-10,11-dihydro-5H-pyrrolo[2,1-c][1,4]benzodiazepine-3-carboxamide]	24%	–
COc1cc(C(=O)N2Cc3ccc(C(=O)N4CCCN(C)CC4)n3Cc3ccccc32)ccc1-c1cccc2ccccc12 [Example 68, {10-[3-Methoxy-4-(1-naphthyl)benzoyl]-10,11-dihydro-5H-pyrrolo[2,1-c][1,4]benzodiazepin-3-yl}(4-methyl-1,4-diazepan-1-yl)methanone]	29%	–
Cc1cc(C(=O)N2Cc3cccn3Cc3ccccc32)cc(C)c1-n1c(C)ccc1C [Example 30, [4-(2,5-Dimethyl-1H-pyrrol-1-yl)-3,5-dimethyl-phenyl][10,11-dihydro-5H-pyrrolo[2,1-c][1,4]benzodiazepin-10-yl]methanone]	3%	–
COc1cc(C(=O)N2Cc3ccc(C(=O)N4CCN(CCCN(C)C)CC4)n3Cc3ccccc32)ccc1-c1ccccc1C [Example 250, {4-[3-(Dimethylamino)propyl]-1-piperazinyl}{10-[(2-methoxy-2′-methyl[1,1′-biphenyl]-4-yl)carbonyl]-10,11-dihydro-5H-pyrrolo[2,1-c][1,4]benzodiazepin-3-yl}methanone]	-10%	–
COc1cc(C(=O)N2Cc3ccc(C(=O)N4CCN(CCN5CCOCC5)CC4)n3Cc3ccccc32)ccc1-n1c(C)ccc1C [Example 317, {10-[4-(2,5-Dimethyl-1H-pyrrol-1-yl)-3-methoxybenzoyl]-10,11-dihydro-5H-pyrrolo[2,1-c][1,4]benzodiazepin-3-yl}{4-[2-(4-morpholinyl)ethyl]-1-piperazinyl}methanone]	15%	–
COc1cccc(-c2cc(OC)c(C(=O)N3Cc4ccc(C(=O)N5CCN(C)CC5)n4Cc4ccccc43)cc2Cl)c1 [Example 54, {10-[(6-Chloro-3,3′-dimethoxy[1,1′-biphenyl]-4-yl)carbonyl]-10,11-dihydro-5H-pyrrolo[2,1-c][1,4]benzodiazepin-3-yl}(4-methyl-1-piperazinyl)methanone]	7%	–
CN(C)CCCN1CCN(C(=O)c2ccc3n2Cc2ccccc2N(C(=O)c2ccc(-c4cccc5ccccc45)cc2Cl)C3)CC1 [Example 256, {10-[2-Chloro-4-(1-naphthyl)benzoyl]-10,11-dihydro-5H-pyrrolo[2,1-c][1,4]benzodiazepin-3-yl}{4-[3-(dimethylamino)propyl]-1-piperazinyl}methanone]	40%	–
CCOc1ccccc1-c1cc(OC)c(C(=O)N2Cc3cccn3Cc3ccccc32)cc1Cl [Example 17, 10-{[6-Chloro-3-methoxy-2′-ethoxy[1,1′-biphenyl]-4-yl]carbonyl}-10,11-dihydro-5H-pyrrolo[2,1-c][1,4]benzodiazepine]	32%	–
COc1cccc(-c2ccc(C(=O)N3Cc4ccc(C(=O)N5CCN(CCCN(C)C)CC5)n4Cc4ccccc43)cc2OC)c1 [Example 255, {10-[(2,3′-Dimethoxy[1,1′-biphenyl]-4-yl)carbonyl]-10,11-dihydro-5H-pyrrolo[2,1-c][1,4]benzodiazepin-3-yl}{4-[3-(dimethylamino)propyl]-1-piperazinyl}methanone]	27%	–
COc1cc(C(=O)N2Cc3ccc(C(=O)N4CCC(N5CCCC5)CC4)n3Cc3ccccc32)ccc1-n1c(C)ccc1C [Example 313, {10-[4-(2,5-Dimethyl-1H-pyrrol-1-yl)-3-methoxybenzoyl]-10,11-dihydro-5H-pyrrolo[2,1-c][1,4]benzodiazepin-3-yl}[4-(1-pyrrolidinyl)-1-piperidinyl]methanone]	2%	–
COc1ccccc1-c1ccc(C(=O)N2Cc3ccc(C(=O)N[C@H]4CN5CCC4CC5)n3Cc3ccccc32)cc1C [Example 298, N-[(3R)-1-Azabicyclo[2.2.2]oct-3-yl]-10-[(2′-methoxy-2-methyl[1,1′-biphenyl]-4-yl)carbonyl]-10,11-dihydro-5H-pyrrolo[2,1-c][1,4]benzodiazepine-3-carboxamide]	29%	–
CN1CCN(C(=O)c2ccc3n2Cc2ccccc2N(C(=O)c2ccc(-c4cccc5ccccc45)cc2Cl)C3)CC1 [Example 58, {10-[2-Chloro-4-(1-naphthyl)benzoyl]-10,11-dihydro-5H-pyrrolo[2,1-c][1,4]benzodiazepin-3-yl}(4-methyl-1-piperazinyl)methanone]	18%	–
COc1cc(C(=O)N2Cc3ccc(C(=O)NCCCn4ccnc4)n3Cc3ccccc32)ccc1-n1c(C)ccc1C [Example 312, 10-[4-(2,5-Dimethyl-1H-pyrrol-1-yl)-3-methoxybenzoyl]-N-[3-(1H-imidazol-1-yl)propyl]-10,11-dihydro-5H-pyrrolo[2,1-c][1,4]benzodiazepine-3-carboxamide]	3%	–
COc1cc(C(=O)N2Cc3ccc(C(=O)N4CCN(C)CC4)n3Cc3ccccc32)ccc1-n1c(C)ccc1C [Example 306, {10-[4-(2,5-Dimethyl-1H-pyrrol-1-yl)-3-methoxybenzoyl]-10,11-dihydro-5H-pyrrolo[2,1-c][1,4]benzodiazepin-3-yl}(4-methyl-1-piperazinyl)methanone]	0%	–
COc1cc(C(=O)N2Cc3ccc(C(=O)N4CCC(N5CCCCC5)CC4)n3Cc3ccccc32)ccc1-n1c(C)ccc1C [Example 311, {10-[4-(2,5-Dimethyl-1H-pyrrol-1-yl)-3-methoxy-benzoyl]-10,11-dihydro-5H-pyrrolo[2,1-c][1,4]benzodiazepin-3-yl}[4-(1-piperidinyl)-1-piperidinyl]-methanone]	7%	–
